Measurements: patent US5705630A, “2'-methylidenepyrimidine nucleoside compounds” (Yoshitomi Pharmaceutical Industries, Ltd., priority 1988, dated 1998)

Test: solubility (general statement)
Assay type: physicochemical
Settings: with respect to pharmaceutical production

C=C1[C@H](n2ccc(N)nc2=O)O[C@H](CO)[C@H]1O [2'-deoxy-2'-methylidenecytidine]
solubility: inferior in solubility
